The text below walks through data of paper PMC11432405, “Development of Novel Alaninamide Derivatives with Anticonvulsant Activity and Favorable Safety Profiles in Animal Models” (International Journal of Molecular Sciences, 2024).

The test system of one data set is Na+ channel (site 2). Put plainly: radioligand binding Na+ channel (site 2). Conditions: 100 µM, rat cerebral cortex. The protocol:
(§1) Binding/functional studies were performed commercially in Cerep Laboratories (Poitiers, France) using testing procedures described elsewhere. The general information is listed in Table S3 in the Supporting Information.
(§2) Table S3. The general information of radioligand binding/functional assays. […]
(§3) Assays were performed commercially in Eurofins Cerep SA (Celle l’Evescault, France) and Eurofins
(§4) Panlabs Discovery Services Taiwan, Ltd. (New Taipei City, Taiwan), using procedures describe

The next data set deals with 6 Hz (44 mA) seizures. Put plainly: 6 Hz (44 mA) psychomotor seizure model.
In data set [1] the test system is Cav1.2 (L-type) (dihydropyridine site). Put plainly: radioligand binding Cav1.2 (L-type) dihydropyridine site. The settings on record: 100 µM, rat cerebral cortex. The protocol:
as §1
Table S3. The general information of radioligand binding/functional assays.
Ca2+channel (L, dihydropyridine site) (antagonist radioligand) […]
as §3, §4

The test system of the next data set is HepG2 cells. Briefly: hepatocytotoxicity MTT viability assay. The data set is classed as cell-based, human. Conditions: 1–50 µM, 24 h. The protocol:
(§5) To evaluate selected compounds’ hepatocytotoxicity and neurocytotoxicity, a human hepatocellular carcinoma cell line, HepG2 (ATCC® HB-8065™), and a human neuroblastoma cell line, SH-SY5Y (ATCC®, CRL-2266™), were used. Both cell lines were cultured in standard culture conditions (5% CO2, 37 °C, 95% humidity) using Dulbecco′s Modified Eagle′s—Medium (DMEM; Gibco, Thermo Scientific, Waltham, MA, USA) supplemented with 10% (vol/vol) fetal bovine serum (FBS; Gibco, Thermo Scientific, Waltham, MA, USA) and an antibiotic mixture (Penicillin, Streptomycin, Amphotericin B; Gibco, Thermo Scientific, Waltham, MA, USA). Cells were cultured with compounds 5, […], or 39 (1–50 µM) for 24 h and then an MTT (3-(4,5-dimethylthiazol-2-yl)-2,5diphenyltetrazolium bromide, Sigma-Aldrich, St. Louis, MO, USA) viability assay was performed. The formazan crystals were dissolved in DMSO (Sigma-Aldrich, St. Louis, MO, USA), and the absorbance at 570 nm was measured using a microplate reader (SpectraMax® iD3, Molecular Devices, San Jose, CA, USA). The experiment was performed three times in duplicate. Each bar represents the mean (±SEM) percentage of viable cells in comparison to the control (defined as 100% and represented by untreated cells).
Figure 2 The viability of HepG2 cells incubated in the presence of 5, 17, and 39. HepG2 cells were exposed to growing concentrations (1–50 µM) of tested compounds for 24 h. Cell viability was measured using an MTT assay. Bars represent mean percent of cell viability normalized to non-treated cells (100%) ± SEM. The doxorubicin was tested as a positive control.

The test system of the next data set is SH-SY5Y cells. Briefly: neurocytotoxicity MTT viability assay. Conditions: 1–50 µM, 24 h. Type of data set: cell-based, human. The method, then:
as §5
Figure 3 The viability of SH-SY5Y cells incubated in the presence of compounds 5, 17, and 39. […] Cell viability was measured using an MTT assay. […]
On the technique in general: Tetrazolium assays rely on reduction of a dye to a coloured formazan, in cell work by metabolically active cells.

Data set [2] addresses T1, Cav1.2 (h) calcium ion channel (Homo sapiens, UniProt Q13936).
T1 construct: Eurofins Cerep SA / Eurofins Panlabs Discovery Services Taiwan (contract assay)
Briefly: Cav1.2 (h) calcium ion channel cell-based antagonist calcium flux assay. The method, then:
as §1, §2
Cav1.2 (L-type) (h) calcium ion channel cell based antagonist calcium flux assay
as §3, §4

The nature of data set [3]: rotarod test (acute neurological toxicity, motor coordination). The data set is classed as in vivo. Conditions: male, CD-1 (albino Swiss), mouse, in vivo, ip, mice i.p. (In general: The rotarod test checks motor coordination on a turning rod.)
Protocol: The protective indexes (PIs) were then calculated as the ratio of TD50 to ED50 (PI = TD50/ED50), providing an assessment of the therapeutic window for each compound.
Each group consisted of six animals.
In the next data set the target is T2, human recombinant MAO-B (Homo sapiens, UniProt P27338).
T2 construct: purchased Sigma Aldrich
T2 sequence (P27338 1-520): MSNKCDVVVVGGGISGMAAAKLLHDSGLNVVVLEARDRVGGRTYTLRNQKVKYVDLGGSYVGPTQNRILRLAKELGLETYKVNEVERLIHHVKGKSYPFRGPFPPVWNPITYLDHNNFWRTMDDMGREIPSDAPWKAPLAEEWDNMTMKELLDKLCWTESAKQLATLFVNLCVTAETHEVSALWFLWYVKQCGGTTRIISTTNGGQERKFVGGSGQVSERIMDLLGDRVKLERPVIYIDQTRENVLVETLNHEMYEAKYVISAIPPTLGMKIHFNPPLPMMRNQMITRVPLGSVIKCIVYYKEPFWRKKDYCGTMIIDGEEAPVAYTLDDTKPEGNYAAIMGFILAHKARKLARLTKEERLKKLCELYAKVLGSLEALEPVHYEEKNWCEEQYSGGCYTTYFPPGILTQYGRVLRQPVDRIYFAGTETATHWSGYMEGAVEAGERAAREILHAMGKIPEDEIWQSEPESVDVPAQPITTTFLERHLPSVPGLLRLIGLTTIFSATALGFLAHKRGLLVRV
Briefly: fluorometric monoamine oxidase B inhibition assay. The data set is classed as biochemical. The settings on record: read-out: % inhibition MAO-B (1 µM), mean of two independent experiments.

The test system of data set [4] is Cav1.2 (L-type) (diltiazem site). Put plainly: radioligand binding Cav1.2 (L-type) diltiazem site. The settings on record: 100 µM, rat cerebral cortex. The protocol: as §1, §2
Ca2+channel (L, diltiazem site) (antagonist radioligand) […]
as §3, §4

Read-outs that look alike come from different tables or passages of the source.

T1 sequence (Q13936 whole entry): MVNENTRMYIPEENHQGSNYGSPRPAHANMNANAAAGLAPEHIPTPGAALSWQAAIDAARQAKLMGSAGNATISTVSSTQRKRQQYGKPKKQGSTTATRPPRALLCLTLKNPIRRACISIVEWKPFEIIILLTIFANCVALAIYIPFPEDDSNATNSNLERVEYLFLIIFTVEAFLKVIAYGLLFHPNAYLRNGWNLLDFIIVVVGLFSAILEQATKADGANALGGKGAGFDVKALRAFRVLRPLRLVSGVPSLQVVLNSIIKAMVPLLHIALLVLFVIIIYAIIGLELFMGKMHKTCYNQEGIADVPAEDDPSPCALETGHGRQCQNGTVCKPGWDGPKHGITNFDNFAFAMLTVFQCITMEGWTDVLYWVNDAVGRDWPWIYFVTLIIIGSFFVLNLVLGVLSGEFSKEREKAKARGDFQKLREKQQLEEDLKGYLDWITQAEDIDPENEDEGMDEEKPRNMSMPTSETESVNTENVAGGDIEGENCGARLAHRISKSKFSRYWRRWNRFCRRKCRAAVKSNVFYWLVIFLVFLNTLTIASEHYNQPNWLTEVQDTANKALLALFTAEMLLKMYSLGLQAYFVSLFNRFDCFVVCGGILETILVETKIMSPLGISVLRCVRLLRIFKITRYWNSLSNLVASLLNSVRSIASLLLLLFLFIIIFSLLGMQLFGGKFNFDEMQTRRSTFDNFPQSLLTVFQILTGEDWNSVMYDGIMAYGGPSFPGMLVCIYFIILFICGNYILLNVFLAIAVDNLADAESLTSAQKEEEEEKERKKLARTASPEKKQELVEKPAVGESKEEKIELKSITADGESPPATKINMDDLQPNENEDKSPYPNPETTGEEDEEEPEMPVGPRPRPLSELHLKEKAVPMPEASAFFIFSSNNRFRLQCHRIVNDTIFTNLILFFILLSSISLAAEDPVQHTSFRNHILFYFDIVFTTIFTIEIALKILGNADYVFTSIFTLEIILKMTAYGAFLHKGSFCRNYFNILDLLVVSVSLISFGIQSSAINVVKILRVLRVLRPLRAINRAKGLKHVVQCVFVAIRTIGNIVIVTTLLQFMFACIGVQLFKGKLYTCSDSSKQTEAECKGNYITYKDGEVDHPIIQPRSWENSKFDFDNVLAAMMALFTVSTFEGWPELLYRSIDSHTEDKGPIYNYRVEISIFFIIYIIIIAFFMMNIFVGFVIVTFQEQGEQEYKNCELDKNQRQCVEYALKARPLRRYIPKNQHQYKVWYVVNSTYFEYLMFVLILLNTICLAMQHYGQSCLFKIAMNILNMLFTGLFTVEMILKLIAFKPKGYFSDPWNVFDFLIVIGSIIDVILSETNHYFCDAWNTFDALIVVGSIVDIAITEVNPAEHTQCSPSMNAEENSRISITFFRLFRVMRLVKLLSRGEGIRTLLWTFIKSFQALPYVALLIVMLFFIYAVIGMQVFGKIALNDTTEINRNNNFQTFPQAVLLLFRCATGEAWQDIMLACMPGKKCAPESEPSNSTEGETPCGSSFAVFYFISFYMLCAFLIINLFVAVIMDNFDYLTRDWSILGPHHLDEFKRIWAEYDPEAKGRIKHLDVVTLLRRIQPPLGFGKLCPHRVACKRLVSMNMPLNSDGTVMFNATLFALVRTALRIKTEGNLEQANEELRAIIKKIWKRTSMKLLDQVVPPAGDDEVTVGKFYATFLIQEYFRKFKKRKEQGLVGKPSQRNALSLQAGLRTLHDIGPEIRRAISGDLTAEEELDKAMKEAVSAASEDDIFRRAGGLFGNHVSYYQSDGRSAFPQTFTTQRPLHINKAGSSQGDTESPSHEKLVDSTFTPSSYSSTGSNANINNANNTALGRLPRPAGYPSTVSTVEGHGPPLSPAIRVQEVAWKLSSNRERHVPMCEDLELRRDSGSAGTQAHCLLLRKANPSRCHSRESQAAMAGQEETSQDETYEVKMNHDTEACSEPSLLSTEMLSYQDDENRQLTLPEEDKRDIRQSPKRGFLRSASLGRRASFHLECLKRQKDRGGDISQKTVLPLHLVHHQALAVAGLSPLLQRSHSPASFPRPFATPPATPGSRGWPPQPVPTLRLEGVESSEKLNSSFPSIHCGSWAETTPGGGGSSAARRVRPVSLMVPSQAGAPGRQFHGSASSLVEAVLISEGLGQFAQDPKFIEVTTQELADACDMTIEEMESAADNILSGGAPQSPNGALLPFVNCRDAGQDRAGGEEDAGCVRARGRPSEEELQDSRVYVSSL
T1 sequence (Q08289 whole entry partner): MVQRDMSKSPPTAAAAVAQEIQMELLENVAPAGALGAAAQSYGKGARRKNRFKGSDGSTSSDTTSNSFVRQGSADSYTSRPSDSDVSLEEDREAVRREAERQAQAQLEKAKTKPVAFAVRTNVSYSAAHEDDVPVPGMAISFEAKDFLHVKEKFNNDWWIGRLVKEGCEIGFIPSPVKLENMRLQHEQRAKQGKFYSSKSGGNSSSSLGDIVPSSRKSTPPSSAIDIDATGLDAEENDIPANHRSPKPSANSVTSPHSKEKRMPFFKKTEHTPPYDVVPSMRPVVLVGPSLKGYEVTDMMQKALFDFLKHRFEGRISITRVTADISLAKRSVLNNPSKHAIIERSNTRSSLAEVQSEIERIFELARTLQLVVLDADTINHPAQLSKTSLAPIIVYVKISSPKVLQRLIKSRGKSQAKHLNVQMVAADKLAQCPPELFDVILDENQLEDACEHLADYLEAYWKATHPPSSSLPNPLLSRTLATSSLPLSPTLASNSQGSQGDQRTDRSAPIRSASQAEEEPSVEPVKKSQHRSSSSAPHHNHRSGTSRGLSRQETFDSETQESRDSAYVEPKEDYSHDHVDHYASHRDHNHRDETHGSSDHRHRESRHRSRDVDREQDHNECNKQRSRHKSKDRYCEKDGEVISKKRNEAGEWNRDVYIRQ
T1 sequence (P54289 25-1103 partner): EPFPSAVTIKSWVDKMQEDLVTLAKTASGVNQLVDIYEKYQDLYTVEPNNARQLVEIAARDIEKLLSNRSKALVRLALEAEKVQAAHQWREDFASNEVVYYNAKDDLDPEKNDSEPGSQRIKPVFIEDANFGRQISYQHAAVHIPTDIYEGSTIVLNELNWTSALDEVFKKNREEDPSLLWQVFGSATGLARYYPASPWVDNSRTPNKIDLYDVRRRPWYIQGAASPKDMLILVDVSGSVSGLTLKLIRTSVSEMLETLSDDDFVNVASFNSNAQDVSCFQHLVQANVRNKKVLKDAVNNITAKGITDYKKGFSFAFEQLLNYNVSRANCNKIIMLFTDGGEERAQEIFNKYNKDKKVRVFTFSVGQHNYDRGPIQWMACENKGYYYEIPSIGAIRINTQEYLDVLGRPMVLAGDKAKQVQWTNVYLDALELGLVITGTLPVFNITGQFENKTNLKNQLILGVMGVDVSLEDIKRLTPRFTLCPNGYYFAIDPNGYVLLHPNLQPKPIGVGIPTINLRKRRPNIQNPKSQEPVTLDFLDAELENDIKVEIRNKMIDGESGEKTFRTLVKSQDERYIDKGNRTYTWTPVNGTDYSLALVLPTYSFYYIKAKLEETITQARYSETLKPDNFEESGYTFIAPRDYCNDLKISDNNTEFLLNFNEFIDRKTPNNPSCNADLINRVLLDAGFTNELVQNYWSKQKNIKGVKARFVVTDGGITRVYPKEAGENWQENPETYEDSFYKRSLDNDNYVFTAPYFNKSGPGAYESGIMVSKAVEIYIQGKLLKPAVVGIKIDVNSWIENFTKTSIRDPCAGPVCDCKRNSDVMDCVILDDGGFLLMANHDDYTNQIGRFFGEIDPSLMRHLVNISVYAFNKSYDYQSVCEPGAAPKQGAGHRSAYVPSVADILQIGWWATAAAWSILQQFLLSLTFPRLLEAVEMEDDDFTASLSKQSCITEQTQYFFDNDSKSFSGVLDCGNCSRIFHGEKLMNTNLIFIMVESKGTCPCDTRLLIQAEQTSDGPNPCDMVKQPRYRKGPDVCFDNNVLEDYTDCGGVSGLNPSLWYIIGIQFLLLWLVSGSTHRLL

As a reminder, the melting point is the temperature of the solid-liquid transition. The ED50 is the midpoint of the dose-response relation. What is called inhibition is the percentage by which the read-out fell short of the control. The term TD50 denotes the 50% point of the dose-response relation for the toxic effect studied. Lower therefore signals greater toxicity. As to `CC(C(=O)NCc1ccc(OCc2ccccc2)cc1)N1C(=O)CCC1=O` (stereo not drawn) [Compound 5, N-(4-(benzyloxy)benzyl)-2-(2,5-dioxopyrrolidin-1-yl)propanamide], the melting point lay in the range of 102.9 to 103.4 °C. Besides, in the data set on Na+ channel (site 2), the “% Inhibition of Control Specific Binding” value is 38.2 (100) %. In the data set with 6 Hz (44 mA) seizures (Mus musculus, ip, 0.5 h, read-out: ED50 6 Hz (44 mA)), the ED50 was 201 mg/kg. In addition, the “PI (TD50/ED50) 6 Hz (44 mA)” value in the data set on 6 Hz (44 mA) seizures (TD50 rotarod / ED50 6 Hz (44 mA)) is recorded as over 1.5. The “% Inhibition of Control Specific Binding” value in data set [1] is on record as 82.3 (100) %. Further, the “toxic effect on HepG2 cell viability (MTT)” value in the data set on HepG2 cells is “do not exhibit toxic effects”. The “toxic effect on SH-SY5Y cell viability (MTT)” value with SH-SY5Y cells is listed as “do not exhibit toxic effects”. In addition, the inhibition at 100 µM in [2] (HEK293, human recombinant HEK-293 cell, read-out: % Inhibition of Control Agonist Response) is 85%. Also, the inhibition at 100 µM in data set [2] (read-out: inhibition rate of the Cav1.2 (L-type) calcium channel (text summary of binding and functional assays)) is over 50%. This compound also had a TD50 at 0.5 h in data set [3] of over 300 mg/kg. The inhibition at 1 µM on human recombinant MAO-B was found to be 0%. Further, the “% Inhibition of Control Specific Binding” value in data set [4] is reported as 68.5 (100) %.
